Read-outs that look alike come from different tables or passages of the source.
Legend:
Settings in all cases: Klebsiella pneumoniae
[1] = system: K. pneumoniae NVT1001 and its ΔompK35/36 and/or ΔramR mutants; assay: Etest MIC, OmpK35/36 loss and AcrAB-TolC overexpression (ΔramR) strains (Table 6); format: cell-based, Klebsiella pneumoniae
Outline: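 Etest strips per kit instructions; off-scale intermediate readings rounded upward to the nearest two-fold concentration. Broth microdilution (CLSI) for ceftazidime, cefotaxime only. Breakpoints: CLSI 2017 generally, CLSI 2015 for cephalothin, EUCAST 2017 for moxifloxacin.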

[2] = system: K. pneumoniae NVT1001 ΔramRΔompK35/36 mutant and its revertants; assay: Etest MIC, ΔramRΔompK35/36 mutant and its revertants (Table 7); format: cell-based
[3] = system: K. pneumoniae NVT1001 strains with carbapenemase plasmids; assay: Etest MIC of β-lactams, OmpK35/36 loss, ΔramR and/or carbapenemase (Table 9); format: cell-based, Klebsiella pneumoniae
Outline: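 Etest MICs, with values between standard dilutions rounded up to the next two-fold step, were measured in K. pneumoniae NVT1001 carrying PCR-cloned resistance genes on pACYC177 or pACYC184 plasmids. Interpretation used CLSI 2017 breakpoints, CLSI 2015 for cephalothin and EUCAST 2017 for moxifloxacin. For the blaOXA-48 strain, ceftazidime and cefotaxime were additionally tested by CLSI broth microdilution.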

[4] = ΔramRΔ35/36, ΔramRΔompK35/36 mutant
[5] = ΔramRΔompK35/36::ompK35/36 revertant
[6] = ΔramRΔompK35/36::ompK35 revertant
[7] = ΔramRΔompK35/36::ompK36 revertant
[8] = ΔramRΔompK35/36::ramR revertant
[9] = ΔramRΔompK35/36::ramR::ompK35/36 revertant
[10] = ΔramRΔompK35/36::ramR::ompK35 revertant
[11] = ΔramRΔompK35/36::ramR::ompK36 revertant
[12] = IMP-8 on pACYC177, WT (NVT1001), read-out: MIC
[13] = IMP-8 on pACYC177, Δ35 (ΔompK35 mutant)
[14] = IMP-8 on pACYC177, Δ35/36 (ΔompK35/36 mutant)
[15] = IMP-8 on pACYC177, Δ36 (ΔompK36 mutant)
[16] = IMP-8 on pACYC177, ΔramR mutant
[17] = IMP-8 on pACYC177, ΔramRΔ35 (ΔramRΔompK35 mutant)
[18] = IMP-8 on pACYC177, ΔramRΔ35/36 (ΔramRΔompK35/36 mutant)
[19] = IMP-8 on pACYC177, ΔramRΔ36 (ΔramRΔompK36 mutant)
[20] = KPC-2 on pACYC177, WT (NVT1001), read-out: MIC
[21] = KPC-2 on pACYC177, Δ35 (ΔompK35 mutant)
[22] = KPC-2 on pACYC177, Δ35/36 (ΔompK35/36 mutant)
[23] = KPC-2 on pACYC177, Δ36 (ΔompK36 mutant)
[24] = KPC-2 on pACYC177, ΔramR mutant
[25] = KPC-2 on pACYC177, ΔramRΔ35 (ΔramRΔompK35 mutant)
[26] = KPC-2 on pACYC177, ΔramRΔ35/36 (ΔramRΔompK35/36 mutant)
[27] = KPC-2 on pACYC177, ΔramRΔ36 (ΔramRΔompK36 mutant)
[28] = KPC-3 on pACYC177, WT (NVT1001), read-out: MIC
[29] = KPC-3 on pACYC177, Δ35 (ΔompK35 mutant)
[30] = KPC-3 on pACYC177, Δ35/36 (ΔompK35/36 mutant)
[31] = KPC-3 on pACYC177, Δ36 (ΔompK36 mutant)
[32] = KPC-3 on pACYC177, ΔramR mutant
[33] = KPC-3 on pACYC177, ΔramRΔ35 (ΔramRΔompK35 mutant)
[34] = KPC-3 on pACYC177, ΔramRΔ35/36 (ΔramRΔompK35/36 mutant)
[35] = KPC-3 on pACYC177, ΔramRΔ36 (ΔramRΔompK36 mutant)
[36] = NDM-1 on pACYC177, WT (NVT1001), read-out: MIC
[37] = NDM-1 on pACYC177, Δ35 (ΔompK35 mutant)
[38] = NDM-1 on pACYC177, Δ35/36 (ΔompK35/36 mutant)
[39] = NDM-1 on pACYC177, Δ36 (ΔompK36 mutant)
[40] = NDM-1 on pACYC177, ΔramR mutant
[41] = NDM-1 on pACYC177, ΔramRΔ35 (ΔramRΔompK35 mutant)
[42] = NDM-1 on pACYC177, ΔramRΔ35/36 (ΔramRΔompK35/36 mutant)
[43] = NDM-1 on pACYC177, ΔramRΔ36 (ΔramRΔompK36 mutant)
[44] = OXA-48 on pACYC177, WT (NVT1001), read-out: MIC
[45] = OXA-48 on pACYC177, Δ35 (ΔompK35 mutant)
[46] = OXA-48 on pACYC177, Δ35/36 (ΔompK35/36 mutant)
[47] = OXA-48 on pACYC177, Δ36 (ΔompK36 mutant)
[48] = OXA-48 on pACYC177, ΔramR mutant
[49] = OXA-48 on pACYC177, ΔramRΔ35 (ΔramRΔompK35 mutant)
[50] = OXA-48 on pACYC177, ΔramRΔ35/36 (ΔramRΔompK35/36 mutant)
[51] = OXA-48 on pACYC177, ΔramRΔ36 (ΔramRΔompK36 mutant)
[52] = VIM-1 on pACYC177, WT (NVT1001), read-out: MIC
[53] = VIM-1 on pACYC177, Δ35 (ΔompK35 mutant)
[54] = VIM-1 on pACYC177, Δ35/36 (ΔompK35/36 mutant)
[55] = VIM-1 on pACYC177, Δ36 (ΔompK36 mutant)
[56] = VIM-1 on pACYC177, ΔramR mutant
[57] = VIM-1 on pACYC177, ΔramRΔ35 (ΔramRΔompK35 mutant)
[58] = VIM-1 on pACYC177, ΔramRΔ35/36 (ΔramRΔompK35/36 mutant)
[59] = VIM-1 on pACYC177, ΔramRΔ36 (ΔramRΔompK36 mutant)
[60] = no supplemental plasmid, WT (NVT1001), read-out: MIC
[61] = no supplemental plasmid, Δ35 (ΔompK35 mutant)
[62] = no supplemental plasmid, Δ35/36 (ΔompK35/36 mutant)
[63] = no supplemental plasmid, Δ36 (ΔompK36 mutant)
[64] = no supplemental plasmid, ΔramR mutant
[65] = no supplemental plasmid, ΔramRΔ35 (ΔramRΔompK35 mutant)
[66] = no supplemental plasmid, ΔramRΔ35/36 (ΔramRΔompK35/36 mutant)
[67] = no supplemental plasmid, ΔramRΔ36 (ΔramRΔompK36 mutant)

Measured: MIC

C[C@@H](O)[C@H]1C(=O)N2C(C(=O)O)=C(SCCN=CN)C[C@H]12 [Imipenem]
0.5 µg/mL: [1]; WT, NVT1001, read-out: MIC | [1]; Δ35, ΔompK35 mutant | [1]; Δ35/36, ΔompK35/36 mutant | [1]; Δ36, ΔompK36 mutant | [1]; [4] | [1]; ΔramRΔ36, ΔramRΔompK36 mutant | [2]; [8] | [2]; [9] | [2]; ΔramRΔompK35/36 mutant | [3]; [60] | [3]; [61] | [3]; [62] | [3]; [63] | [3]; [66] | [3]; [67]
0.25 µg/mL: [1]; ΔramR mutant | [1]; ΔramRΔ35, ΔramRΔompK35 mutant | [2]; [5] | [2]; [6] | [2]; [7] | [2]; [10] | [2]; [11] | [3]; [64] | [3]; [65]
8 µg/mL: [3]; [15] | [3]; [47]
32 µg/mL: [3]; [28] | [3]; [32] | [3]; [33] | [3]; [53]
16 µg/mL: [3]; [52] | [3]; [56] | [3]; [57]
4 µg/mL: [3]; [12] | [3]; [13] | [3]; [16] | [3]; [17] | [3]; [44] | [3]; [45] | [3]; [48] | [3]; [49]
> 32 µg/mL: [3]; [14] | [3]; [18] | [3]; [19] | [3]; [20] | [3]; [21] | [3]; [22] | [3]; [23] | [3]; [24] | [3]; [25] | [3]; [26] | [3]; [27] | [3]; [29] | [3]; [30] | [3]; [31] | [3]; [34] | [3]; [35] | [3]; [36] | [3]; [37] | [3]; [38] | [3]; [39] | [3]; [40] | [3]; [41] | [3]; [42] | [3]; [43] | [3]; [46] | [3]; [50] | [3]; [51] | [3]; [54] | [3]; [55] | [3]; [58] | [3]; [59]

C[C@@H](O)[C@H]1C(=O)N2C(C(=O)O)=C(S[C@@H]3CN[C@H](CNS(N)(=O)=O)C3)[C@H](C)[C@H]12 [Doripenem]
16 µg/mL: [3]; [20] | [3]; [24] | [3]; [32] | [3]; [36] | [3]; [52]
> 32 µg/mL: [3]; [14] | [3]; [22] | [3]; [23] | [3]; [26] | [3]; [27] | [3]; [30] | [3]; [31] | [3]; [34] | [3]; [35] | [3]; [38] | [3]; [39] | [3]; [42] | [3]; [43] | [3]; [46] | [3]; [50] | [3]; [51] | [3]; [54] | [3]; [55] | [3]; [58] | [3]; [59]
0.125 µg/mL: [1]; Δ35/36, ΔompK35/36 mutant | [2]; [10] | [2]; [11] | [3]; [62]
2 µg/mL: [3]; [13] | [3]; [15] | [3]; [17] | [3]; [44] | [3]; [45] | [3]; [48]
0.06 µg/mL: [1]; WT, NVT1001, read-out: MIC | [1]; Δ35, ΔompK35 mutant | [1]; Δ36, ΔompK36 mutant | [2]; [5] | [2]; [7] | [2]; [9] | [3]; [60] | [3]; [61] | [3]; [63]
0.5 µg/mL: [1]; [4] | [2]; ΔramRΔompK35/36 mutant | [3]; [66]
0.03 µg/mL: [1]; ΔramR mutant | [1]; ΔramRΔ35, ΔramRΔompK35 mutant | [3]; [64] | [3]; [65]
1 µg/mL: [3]; [12] | [3]; [16] | [3]; [49]
32 µg/mL: [3]; [18] | [3]; [19] | [3]; [21] | [3]; [25] | [3]; [29] | [3]; [33] | [3]; [37] | [3]; [40] | [3]; [41] | [3]; [53] | [3]; [56] | [3]; [57]
0.25 µg/mL: [1]; ΔramRΔ36, ΔramRΔompK36 mutant | [2]; [6] | [2]; [8] | [3]; [67]
8 µg/mL: [3]; [28] | [3]; [47]

From patent US10760110B2, “Antibiotic testing and screening system” (priority 2017, dated 2020)
